Source: patent US8575135B2 (Gilead Sciences, Inc., priority 2011, dated 2013)
Where two headings read alike, the source gives them in different places.

How the values were obtained:
Experiment in all cases: microbe, parasite or virus in culture
Settings in all cases: Hepatitis C virus
[1] = test system: stable HCV 1a RLuc replicon cells (genotype 1a H77 replicon); format: cell-based
Procedure: (§1) Evaluation of Cell-Based Anti-HCV Activity:
(§2) Antiviral potency (EC50) was determined using a Renilla luciferase (RLuc)-based HCV replicon reporter assay. […] To perform the assay for genotype 2a (with M31 present in NS5A) or 2b, NS5A chimeric genotype 2a JFH-1 replicons that encodes a RLuc-Neo reporter and either genotype 2a J6 strain NS5A gene or genotype 2b MD2b-1 strain NS5A gene (both with M31 present) respectively, were either transiently transfected (t) into Huh-Lunet cells or were established as stably replicating replicon cells (s) is provided. Either cells were dispensed into 384-well plates for EC50 assays. To perform the assay for genotype 3 and 4, NS5A chimeric genotype 1b Con1 replicons that encodes a Pi-RLuc reporter and either genotype 3a S52 strain NS5A gene or genotype 4a ED43 strain NS5A gene respectively, were transiently transfected (t) into Huh-Lunet cells, which were subsequently dispensed into 384-well plates. Compounds were dissolved in DMSO at a concentration of 10 mM and diluted in DMSO either manually or using an automated pipeting instrument. Serially 3-fold diluted compounds were either manually mixed with cell culture media and added to the seeded cells or directly added to the cells using an automated instrument. […] 72 hours later, cells were lysed and Renilla luciferase activity quantified as recommended by the manufacturer (Promega-Madison, Wis.). Non-linear regression was performed to calculate EC50 values.

[2] = test system: stable HCV 2a JFH-1 Rluc replicon cells (L31 present in NS5A); format: cell-based
[3] = test system: NS5A chimeric genotype 1b Con1 replicon with genotype 3a S52 strain NS5A gene; format: cell-based, HCV
Procedure: as §1, §2

[4] = test system: NS5A chimeric genotype 2a JFH-1 replicon with genotype 2a J6 strain NS5A gene (M31 present); format: cell-based, HCV
Procedure: as §1, §2

[5] = test system: NS5A chimeric genotype 2a JFH-1 replicon with genotype 2b MD2b-1 strain NS5A gene (M31 present); format: cell-based, HCV
Procedure: as §1, §2

[6] = test system: NS5A chimeric genotype 1b Con1 replicon with genotype 4a ED43 strain NS5A gene; format: cell-based, HCV
[7] = test system: 1a Pi-Rluc replicon with Q30R in genotype 1a NS5A; format: cell-based, HCV
Procedure: as §2
To determine the antiviral potency (EC50) against resistance mutants, resistance mutations, including M28T, Q30R, Q30H, L31M, and Y93C in genotype 1a NS5A and Y93H in genotype 1b NS5A, were introduced individually into either 1a Pi-Rluc or 1b Pi-Rluc replicons by site directed mutagenesis. Replicon RNA of each resistant mutant was transiently transfected into Huh-7-derived cured-51 cells and antiviral potency was determined on these transfected cells as described above.

| SMILES | EC50 ([1]; read-out: 1a) [nM] | EC50 ([1]; read-out: 1a (nM)) [nM] | EC50 ([2]; read-out: 2a JFH) [nM] | EC50 ([2]; read-out: 2a JFH (nM)) [nM] | EC50 ([3]; read-out: 3a) [nM] | EC50 ([3]; read-out: 3a (nM)) [nM] | EC50 ([4]; read-out: 2a J6) [nM] | EC50 ([4]; read-out: 2a J6 (s) (nM)) [nM] | EC50 ([4]; read-out: 2a Jb (t) (nM)) [nM] | EC50 ([5]; read-out: 2b) [nM] | EC50 ([5]; read-out: 2b (s) (nM)) [nM] | EC50 ([5]; read-out: 2b (t) (nM)) [nM] | EC50 ([6]; read-out: 4a) [nM] | EC50 ([6]; read-out: 4a (s) (nM)) [nM] | EC50 ([6]; read-out: 4a (t) (nM)) [nM] | EC50 ([7]; read-out: 1a Q30R) [nM] | EC50 ([7]; read-out: 1a Q30R (nM)) [nM] |
| --- | --- | --- | --- | --- | --- | --- | --- | --- | --- | --- | --- | --- | --- | --- | --- | --- | --- |
| COC(=O)N[C@H](C(=O)N1CCC[C@H]1c1nc2ccc3cc4c(cc3c2[nH]1)OCc1cc(-c2cnc([C@@H]3CCCN3C(=O)[C@H](NC(=O)C3CC3)c3ccccc3)[nH]2)ccc1-4)C(C)C [Compound 498] | < 1 | 0.03 | < 1 | 0.004 | < 1 | 0.005 | < 1 | 0.039 | 0.012 | < 1 | 0.013 | 0.01 | < 1 | 0.004 | 0.011 | < 1 | 0.04 |
| COC(=O)N[C@H](C(=O)N1CCC[C@H]1c1ncc(-c2ccc3c(c2)COc2cc4c(ccc5nc([C@@H]6C[C@H](C)CN6C(=O)[C@H](NC(=O)OC)c6ccccc6)[nH]c54)cc2-3)[nH]1)C(C)C [Example MY, Methyl {2-[2-{9-[2-(1-{2-[(methoxycarbonyl)amino]-3-methylbutanoyl}pyrrolidin-2-yl)-1H-imidazol-5-yl]-1,11-dihydroisochromeno[4′,3′:6,7]naphtho[1,2-d]imidazol-2-yl}-4-(methyl)pyrrolidin-1-yl]-2-oxo-1-phenylethyl}carbamate] | < 1 | 0.016 | < 1 | 0.005 | < 1 | 0.01 | < 1 | 0.165 | 0.047 | < 1 | 0.047 | 0.016 | < 1 | 0.02 | 0.008 | < 1 | 0.024 |
| COC(=O)N[C@H](C(=O)N1[C@@H](C)CC[C@H]1c1nc2ccc3cc4c(cc3c2[nH]1)OCc1cc(-c2cnc([C@@H]3C[C@H](C)CN3C(=O)[C@H](NC(=O)OC)c3ccccc3)[nH]2)ccc1-4)C(C)C [Example QF, Methyl {(2S)-1-[(2S,5S)-2-(9-{2-[(2S,4S)-1-{(2R)-2-[(methoxycarbonyl)amino]-2-phenylacetyl}-4-methylpyrrolidin-2-yl]-1H-imidazol-5-yl}-1,11-dihydroisochromeno[4′,3′:6,7]naphtho[1,2-d]imidazol-2-yl)-5-methylpyrrolidin-1-yl]-3-methyl-1-oxobutan-2-yl}carbamate] | < 1 | 0.008 | < 1 | 0.004 | < 1 | 0.02 | < 1 | – | 0.053 | < 1 | 0.011 | 0.015 | – | – | – | < 1 | 0.032 |
| COC[C@H]1C[C@@H](c2ncc(-c3ccc4c(c3)COc3cc5c(ccc6nc([C@@H]7C[C@H]8C[C@H]8N7C(=O)[C@@H](NC(=O)OC)C(C)C)[nH]c65)cc3-4)[nH]2)N(C(=O)[C@H](NC(=O)OC)c2ccccc2)C1 [Example PR, methyl {(1R)-2-[(2S,4S)-2-(5-{2-[(1R,3S,5R)-2-{(2S)-2-[(methoxycarbonyl)amino]-3-methylbutanoyl}-2-azabicyclo[3.1.0]hex-3-yl]-1,11-dihydroisochromeno[4′,3′:6,7]naphtho[1,2-d]imidazol-9-yl}-1H-imidazol-2-yl)-4-(methoxymethyl)pyrrolidin-1-yl]-2-oxo-1-phenylethyl}carbamate] | < 1 | 0.013 | < 1 | 0.007 | < 1 | 0.018 | < 1 | – | 0.022 | < 1 | – | 0.028 | – | – | – | < 1 | 0.045 |
| COC[C@H]1C[C@@H](c2ncc(-c3ccc4c(c3)COc3cc5c(ccc6nc([C@@H]7C[C@@H]8C[C@@H]8N7C(=O)[C@@H](NC(=O)OC)C(C)C)[nH]c65)cc3-4)[nH]2)N(C(=O)[C@H](NC(=O)OC)c2ccccc2)C1 [Example OV, Methyl {(1R)-2-[(2S,4S)-2-(5-{2-[(1S,3S,5S)-2-{(2S)-2-[(methoxycarbonyl)amino]-3-methylbutanoyl}-2-azabicyclo[3.1.0]hex-3-yl]-1,11-dihydroisochromeno[4′,3′:6,7]naphtho[1,2-d]imidazol-9-yl}-1H-imidazol-2-yl)-4-(methoxymethyl)pyrrolidin-1-yl]-2-oxo-1-phenylethyl}carbamate] | < 1 | 0.01 | < 1 | 0.007 | < 1 | 0.013 | < 1 | – | 0.113 | < 1 | – | 0.046 | – | – | – | < 1 | 0.031 |
| COC(=O)N[C@H](C(=O)N1[C@@H](C)CC[C@H]1c1ncc(-c2ccc3c(c2)COc2cc4c(ccc5nc([C@@H]6CCCN6C(=O)[C@H](NC(=O)OC)c6ccccc6)[nH]c54)cc2-3)[nH]1)C(C)C [Example NQ, Methyl {(2S)-1-[(2S,5S)-2-(5-{2-[(2S)-1-{(2R)-2-[(methoxycarbonyl)amino]-2-phenylacetyl}pyrrolidin-2-yl]-1,11-dihydroisochromeno[4′,3′:6,7]naphtho[1,2-d]imidazol-9-yl}-1H-imidazol-2-yl)-5-methylpyrrolidin-1-yl]-3-methyl-1-oxobutan-2-yl}carbamate] | < 1 | 0.017 | < 1 | 0.006 | < 1 | 0.013 | < 1 | – | 0.064 | < 1 | 0.012 | 0.013 | – | – | – | < 1 | 0.039 |
| COC[C@H]1C[C@@H](c2ncc(-c3ccc4c(c3)COc3cc5c(ccc6nc([C@@H]7CCCN7C(=O)[C@H](NC(=O)OC)c7ccccc7)[nH]c65)cc3-4)[nH]2)N(C(=O)[C@@H](NC(=O)OC)[C@@H](C)OC)C1 [Compound 626] | < 1 | 0.021 | < 1 | 0.009 | < 1 | 0.027 | < 1 | – | 0.021 | < 1 | – | 0.021 | – | – | – | < 1 | 0.041 |
| COC[C@H]1C[C@@H](c2ncc(-c3ccc4c(c3)COc3cc5c(cc3-4)CCc3nc([C@@H]4CCCN4C(=O)[C@@H](NC(=O)OC)C(C)C)[nH]c3-5)[nH]2)N(C(=O)[C@H](NC(=O)OC)c2ccccc2)C1 [Example OK, Methyl {(1R)-2-[(2S,4S)-2-(5-{2-[(2S)-1-{(2S)-2-[(methoxycarbonyl)amino]-3-methylbutanoyl}pyrrolidin-2-yl]-1,4,5,11-tetrahydroisochromeno[4′,3′:6,7]naphtho[1,2-d]imidazol-9-yl}-1H-imidazol-2-yl)-4-(methoxymethyl)pyrrolidin-1-yl]-2-oxo-1-phenylethyl}carbamate] | < 1 | 0.026 | < 1 | 0.011 | < 1 | 0.028 | < 1 | – | 0.076 | < 1 | 0.045 | 0.036 | – | – | – | < 1 | 0.039 |
